“Also recorded” adds a separate entry of the source.
Key:
naïve C57/BL6 mice = assay: Tumor naïve C57/BL6 mice treated for two weeks, lung immune microenvironment; type: in vivo
Description: To determine iTEAD effect on lung immune microenvironment at steady state, naïve C57/BL6 mice were treated with iTEAD. […] In the absence of cancer cells in these naïve mice, no change in CD8+ T-cells was observed between treatment groups. […] On the cancer cell front, TEAD inhibition had no effect on proliferation yet reduced migration and 3D spheroid collective invasion of breast cancer cells in vitro.
To investigate how TEAD inhibition influences the immune microenvironment in the normal lung, C57BL/6 mice were treated with 30 mg/kg of VT107 or vehicle control via oral gavage for 2 weeks. Lung, spleen and blood tissues were harvested for immune cell analysis and RNA-sequencing (FIG. 9, Panel G). […] RNA-seq data was analyzed by Cibersortx (Chen et al., 2018) to deconvolute the abundance of immune cell types in the lung tissue using single-cell RNA-seq datasets.
Due to the shifts in immune signaling observed in the lung tissue upon TEAD inhibition (FIG. 9), immune cell populations were first analyzed by flow cytometry in the lungs and spleens of tumor naïve mice. Consistent with the Cibersort analysis of RNA-seq data, there was a decrease in the monocytes population and an increase in the tissue-resident alveolar macrophages (AM) (FIG. 10, Panel A). […] Next, it was sought to determine the specific effects of iTEAD treatment on lung resident versus bone-marrow derived macrophages, as the dynamics of these cell populations are crucial for the establishment of the metastatic niche (Ries et al., 2014; Qian et al., 2011). Macrophages were retrieved from the lungs by isolating F4/80+ cells, a specific marker for murine macrophages, by FACS (fluorescence-activated cell sorting) as well as bone marrow-derived macrophages from the femurs of naïve C57BL/6 mice that were then differentiated in vitro using macrophage colony stimulating factor (M-CSF). Macrophages were treated with 1 μM of VT107 for 24 hours before the conditioned media was collected and analyzed on a cytokine array. […] There was no change in the level of the other cytokines detected (FIG. 10, Panel B).
Single cell suspensions were washed 2× with PBS. Cells were then stained with Zombie NIR Fixable Viability Kit (Biolegend, 423106) or Zombie Aqua Fixable Viability Kit (Biolegend, 423102) for 20 minutes at room temperature, to identify dead cells. Next, cells were washed with FACS buffer (1×PBS+2% FBS) and incubated with conjugated antibodies binding to cell surface proteins, at 4 °C for 30 minutes. A combination of the following antibodies were used: anti-CD45-Spark Blue 550 (Biolegend, 103166), anti-CD3-PercP/Cy5.5 (Biolegend, 100217), anti-CD4-Pacific Blue (Biolegend, 116007), anti-CD8-BV785 (Biolegend, 100750), anti-CD25-BV650 (Biolegend, 102038), anti-CD45-AF700 (Biolegend, 103128), anti-CD45R (B220) (Biolegend, 563103), anti-SiglecF-APC (Miltenyi Biotec, 130-102-241), anti-CD11b-PE/Dazzle (Biolegend, 108745), anti-CD11c-FITC (Biolegend, 117306), anti-F480-PE/Cy7 (Biolegend, 123114), anti-Ly6G-BV785 (Biolegend, 127645), anti-Ly6C-BV570 (Biolegend, 128030), anti-CD206-AF700 (Biolegend, 141734), and anti-CD86-AF488 (Biolegend, 105018). Cells were fixed and permeabilized using the BD Cytofix/Cytoperm Fixation/Permeabilization Kit (BD Biosciences, #554714) prior to incubation with anti-Foxp3-AF647 (Biolegend, 126407), anti-Gata3-PE (Biolegend, 653803), anti-RORy t-BV421 (Biolegend, 562894), and anti-T-bet-BV711 (BD Biosciences, 4B10). After staining, cells were washed 2× and subjected to flow cytometry analysis using the BD FACSymphony Δ3 flow cytometer analyzer. Results were analyzed using FCS Express 7 Research (De Novo Software).
The total RNA from tissue or cell lines was extracted using RNeasy Mini Kit (Qiagen, #74104) according to the manufacturer's instructions. Total RNA integrity was assessed with the Agilent 2100 Bioanalyzer. The library preparation and next-generation sequencing (NGS) were performed at Novogene Corporation Inc. (Sacramento, CA, USA). […]

E0771 cells = assay: Real Time Cell Analysis, proliferation of E0771 cells; type: cell-based, mouse; details: increasing doses of VT107, cell index
Description: E0771 cells were injected into the mammary fat pad of C57BL/6 mice (Johnstone et al., 2015). When primary tumors became palpable at 3 weeks, mice were treated daily with VT107 or vehicle control. Mice weights were monitored throughout treatment (FIG. 8, Panel B). Primary tumors were surgically resected at week 4 and mice were euthanized at week 6 to inspect lungs for metastases (FIG. 9, Panel A)
Cell analysis was done using E-plates from xCELLigence, (Agilent, #5469830001) according to the manufacturer's protocol. For cell cytotoxicity, cancer cells (10,000-25,000 cells per well) were seeded and allowed to attach for 1-2 hours prior to the addition of immune cells and/or drug treatments. For cell proliferation, cancer cells were seeded at 5,000-10,000 cells per well with incremental doses of drug treatments or DMSO as a vehicle control. Cell index was measured by changes in electric impedance at 15 min intervals. TEAD inhibitors were obtained from Vivace therapeutics.

[1] = 30 mg/kg oral gavage 2 weeks, flow cytometry

With VT107 as the substance, how does the “alveolar macrophages in the lungs” value (naïve C57/BL6 mice; [1]) read?
Its value is “increase”.

And the “infiltrating monocytes/macrophages in the lungs” value (naïve C57/BL6 mice; [1])?
Its value is “decrease”.

And the “alveolar macrophages in the lungs” value (naïve C57/BL6 mice; 30 mg/kg oral gavage 2 weeks, flow cytometry, listed as iTEAD)?
Its value is “robust increase; also recorded: shift”.

What about the leukocytes fraction (naïve C57/BL6 mice; Cibersortx of RNA-seq) of the same substance?
Its leukocytes fraction is “slight increase”.

And the “monocyte fraction in lung tissue” value (naïve C57/BL6 mice; Cibersortx of RNA-seq)?
Its value is “reduced”.

What about the “myeloid cells' fraction including tissue resident macrophages” value (naïve C57/BL6 mice; Cibersortx of RNA-seq) of the same substance?
Its value is “expanded”.

What about the “IL12 signaling pathway in lung” value (naïve C57/BL6 mice; Ingenuity pathway analysis) of the same substance?
Its value is “increase”.

What about the “inflammation (cytokine storm, S100 family, wound healing and fibrosis signaling pathways) in lung” value (naïve C57/BL6 mice; Ingenuity pathway analysis) of the same substance?
Its value is “overall reduction”.

What about the “lung gene expression, downregulated compared to upregulated genes” value (naïve C57/BL6 mice; RNA-sequencing) of the same substance?
Its value is “significantly higher number of downregulated genes”.

What about the spleen gene expression (naïve C57/BL6 mice; RNA-sequencing) of the same substance?
Its spleen gene expression is “minimal changes”.

And the “CD3+ cells in tumor naïve lungs” value (naïve C57/BL6 mice; flow cytometry)?
Its value is “increase”.

And the “CD4+ or CD8+ T-cell populations in tumor naïve lungs” value (naïve C57/BL6 mice; flow cytometry)?
The value was “not specifically”.

What about the “total macrophages, dendritic cells, eosinophils or neutrophils” value (naïve C57/BL6 mice; flow cytometry, analyzed tissues) of the same substance?
The value was “No significant change”.

And the “alveolar macrophages and infiltrating monocytes/macrophages in spleen or blood” value (naïve C57/BL6 mice; flow cytometry, listed as iTEAD)?
The value was “no change”.

And the “CD8+ T-cells” value (naïve C57/BL6 mice; naïve mice, between treatment groups)?
The value was “no change”.

And the “proliferation of E0771 in vitro” value (E0771 cells)?
The value was “did not impact”.

Source: patent US20250352524A1, “PREVENTION OF METASTATIC OUTGROWTH USING TEAD INHIBITORS” (Georgetown University, priority 2024, published 2025)
